Among the test systems are A498; SNB-75; SK-MEL-28; OVCAR-8; NCI-H460; DU-145; A549; ACHN; M14; NCI/ADR-RES; SF-268; MOLT-4; SK-OV-3; TK-10; MDA-MB-435; HOP-62; COLO 205; UACC-257; LOX IMVI; PC-3.
Common to all, as to assay: NCI tumour cell line growth inhibition, 48 h

Structures are written as SMILES.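 Dose response: 5 concentrations. Exposure: 48 h. Format: 96-well plates. Endpoint: linear interpolation; highest concentration if not reached. Abbreviation: GI50, concentration required for 50% inhibition of growth.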 Active and inactive are the calls of the source. No stated cut-off is given here; in the data, active = GI50 up to about 1.1 µM and inactive = higher. Bounds are passed on as bounds.

The source of these data is ChEMBL document CHEMBL1201862, “PubChem BioAssay data set” (2004).

On to `CC(=O)NNc1nc(C)c(C(/C=C/c2ccc([N+](=O)[O-])cc2)=N/NC(N)=S)s1`, for which the GI50 in the test on A498, in the test with SNB-75, with SK-MEL-28, in the test on OVCAR-8, with NCI-H460 and with DU-145 was > 100 µM (inactive) in each case. The GI50 in the test with A549, in the test on ACHN, with M14, in the test on NCI/ADR-RES, with SF-268 and in the test with MOLT-4 was > 100 µM (inactive) throughout. The GI50 in the test with SK-OV-3, in the test with TK-10, with MDA-MB-435, in the test on HOP-62, in the test with COLO 205 and with UACC-257 was > 100 µM (inactive) each time. The GI50 in the test with LOX IMVI and in the test on PC-3 was > 100 µM (inactive) in each case.
For the compound `COc1ccc2c(c1)c(=Cc1ccc(N(C)C)cc1)c1cc(-c3ccccc3)[n+](C)n12`, the GI50 in the test on A498 was 1.33 µM (inactive); in the test on SNB-75, 0.00269 µM (active); in the test with SK-MEL-28 it was 0.634 µM (active); with OVCAR-8, 0.154 µM (active); in the test with NCI-H460 it was 0.245 µM (active); with DU-145, 0.479 µM (active). Moreover, the GI50 in the test with A549 was 0.643 µM (active); with ACHN, 1.14 µM (inactive); in the test with M14, 0.312 µM (active); in the test on NCI/ADR-RES, 3.66 µM (inactive); with SF-268 it was 0.226 µM (active); with MOLT-4, 0.305 µM (active). For the same compound, the GI50 with SK-OV-3 was 0.447 µM (active); with TK-10 it was 0.461 µM (active); with MDA-MB-435, 0.369 µM (active); in the test with HOP-62 it was 1.36 µM (inactive); in the test on COLO 205 it was 0.0246 µM (active); in the test on UACC-257, 0.359 µM (active). The GI50 in the test with LOX IMVI is 0.374 µM (active); in the test with PC-3, 0.322 µM (active).
As for `CCOC(=O)c1c(N2CCCC2)[nH]c(=O)c(C(c2c(O)c(C(=O)OCC)c(N3CCCC3)[nH]c2=O)C(C)C)c1O`, the GI50 in the test on A498 was > 100 µM (inactive); in the test with SNB-75, 25.3 µM (inactive); in the test with SK-MEL-28 it was > 100 µM (inactive); in the test on OVCAR-8, > 100 µM (inactive); with NCI-H460, > 100 µM (inactive); with DU-145, > 100 µM (inactive). Moreover, the GI50 was > 100 µM (inactive) with A549; > 100 µM (inactive) in the test on ACHN; > 100 µM (inactive) with M14; > 100 µM (inactive) in the test with NCI/ADR-RES; 72.4 µM (inactive) in the test with SF-268; > 100 µM (inactive) in the test on MOLT-4. The GI50 is > 100 µM (inactive) with SK-OV-3; 42.4 µM (inactive) in the test on TK-10; > 100 µM (inactive) in the test on MDA-MB-435; 94.4 µM (inactive) in the test on HOP-62; > 100 µM (inactive) in the test with COLO 205; > 100 µM (inactive) in the test on UACC-257. The GI50 is > 100 µM (inactive) with LOX IMVI and 33.6 µM (inactive) with PC-3.
